Experimental findings from patent US4864018A, “Anthraquinone derivatives and their use as protein absorbents” (Imperial Chemical Industries PLC, priority 1985, dated 1989) are described below.

SMILES strings stand for the structures.

The target in the assay is T1, horse liver alcohol dehydrogenase (Equus caballus, UniProt P00327).
T1 construct: from tissue; host or cells: horse liver
Nature of the assay: affinity of binding with horse liver alcohol dehydrogenase: reduction in rate of enzyme de-activation by CI Reactive Blue 4 in competition with dye. The following applies: carboxylate (i), (ii), (iii) versus sulphonate (iv), (v), (vi) respectively. The procedure: Three dyes of Formula I, in which the COOH group on Ring A is in the ortho (o), meta (m) and para (p) positions respectively, (i), (ii) and (iii) in Table 2, and three analogues in which the COOH groups are replaced by SO3 H groups, (iv), (v) and (vi) in Table 2, were assessed by affinity of binding with horse liver alcohol dehydrogenase. The assessment procedure comprised measuring the reduction in rate of enzyme de-activation by CI Reactive Blue 4 (a highly reactive, dichlorotriazine dye which rapidly deactivates horse liver alcohol dehydrogenase) when of dyes (i) to (vi) was allowed to compete with CI Reactive Blue 4 for the enzyme. From the reductions in rate observed the dissociation constants, KD, of the [enzyme-dye] combinations were calculated and these values are listed in Table 2.

T1 sequence (P00327 2-375 limits assumed): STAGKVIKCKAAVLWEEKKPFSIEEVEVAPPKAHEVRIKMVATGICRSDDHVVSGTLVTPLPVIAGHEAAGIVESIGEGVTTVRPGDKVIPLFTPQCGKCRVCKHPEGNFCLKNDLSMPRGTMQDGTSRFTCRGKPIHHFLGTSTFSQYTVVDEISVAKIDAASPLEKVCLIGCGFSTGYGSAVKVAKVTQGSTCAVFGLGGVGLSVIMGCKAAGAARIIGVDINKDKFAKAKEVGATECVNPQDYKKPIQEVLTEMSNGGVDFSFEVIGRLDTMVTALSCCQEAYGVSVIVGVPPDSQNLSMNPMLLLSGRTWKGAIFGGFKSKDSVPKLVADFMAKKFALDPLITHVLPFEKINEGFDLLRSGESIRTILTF

Consider `Nc1c(S(=O)(=O)O)cc(Nc2ccc(Nc3nc(Cl)nc(Nc4cccc(C(=O)O)c4)n3)c(S(=O)(=O)O)c2)c2c1C(=O)c1ccccc1C2=O` [(ii)], for which the “binding affinity compared with the corresponding sulphonate analogue” value is “markedly and surprisingly higher”. As for `Nc1c(S(=O)(=O)O)cc(Nc2ccc(Nc3nc(Cl)nc(Nc4ccc(C(=O)O)cc4)n3)c(S(=O)(=O)O)c2)c2c1C(=O)c1ccccc1C2=O` [(iii)], the entry is “markedly and surprisingly higher”. As for `Nc1c(S(=O)(=O)O)cc(Nc2ccc(Nc3nc(Cl)nc(Nc4ccccc4C(=O)O)n3)c(S(=O)(=O)O)c2)c2c1C(=O)c1ccccc1C2=O` [(i)], the entry is “markedly and surprisingly higher”.
